This is an account of results in publication PMC6934184, “Selective DNA-PKcs inhibition extends the therapeutic index of localized radiotherapy and chemotherapy” (The Journal of Clinical Investigation, 2019).

In the assay the target is T1, BRSK1 (SAD1) (Homo sapiens, UniProt Q8TDC3).
T1 construct: purchased Thermo Fisher Scientific (Life Technologies) SelectScreen
Nature of the assay: SelectScreen Z'LYTE. Format: biochemical. Put shortly:
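Compound tested in SelectScreen activity assays, Z'LYTE for CSF1R, CDK1/cyclin B and MAP2K6 and Adapta for CAMK1. ATP for CAMK1 was listed as 10, and Km app was used for CSF1R. Results are expressed in percent.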

T1 sequence (Q8TDC3 whole entry): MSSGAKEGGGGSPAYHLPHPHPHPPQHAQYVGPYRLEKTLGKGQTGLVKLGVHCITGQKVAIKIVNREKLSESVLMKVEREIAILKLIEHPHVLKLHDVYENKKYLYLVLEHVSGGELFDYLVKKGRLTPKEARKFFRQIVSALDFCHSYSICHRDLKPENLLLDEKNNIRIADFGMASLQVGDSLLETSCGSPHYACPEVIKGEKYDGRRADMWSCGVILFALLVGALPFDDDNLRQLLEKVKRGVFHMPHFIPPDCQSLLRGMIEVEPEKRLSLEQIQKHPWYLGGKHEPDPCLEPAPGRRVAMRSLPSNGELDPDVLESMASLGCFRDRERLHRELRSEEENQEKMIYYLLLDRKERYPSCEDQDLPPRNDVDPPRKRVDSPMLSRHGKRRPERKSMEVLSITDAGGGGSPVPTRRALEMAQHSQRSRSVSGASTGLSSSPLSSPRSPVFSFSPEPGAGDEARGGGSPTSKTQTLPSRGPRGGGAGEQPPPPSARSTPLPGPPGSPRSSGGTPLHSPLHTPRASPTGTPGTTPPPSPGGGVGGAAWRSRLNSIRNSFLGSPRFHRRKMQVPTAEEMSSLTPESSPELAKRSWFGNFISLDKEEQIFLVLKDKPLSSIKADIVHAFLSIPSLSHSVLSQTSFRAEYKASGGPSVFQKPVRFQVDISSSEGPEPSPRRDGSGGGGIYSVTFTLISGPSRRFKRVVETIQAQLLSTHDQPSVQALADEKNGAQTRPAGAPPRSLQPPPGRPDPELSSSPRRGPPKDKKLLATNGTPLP

For orientation: inhibition means the drop in the measured response relative to a control, in per cent. Regarding `CN(C(=O)CN1CCOCC1)c1ccc2sc3c(-c4cccc5c(=O)cc(N6CC7CCC(C6)O7)oc45)cccc3c2c1` [NU5455], the inhibition at 1 µM is -1.1%.
